Measurements as given in patent US8586603B2, “Aminotetraline derivatives” (priority 2009, dated 2013).

Key:
[1] = target: T1, human dopamine receptor subtype hD3 (Homo sapiens, UniProt P35462); test: Receptor binding assay, [3H]spiperone competition, CHO cell membranes; conditions: for Ki: means of 2-8 individual experiments each done as triplicate; for selectivity ratio hD3: vs p5-HT1a
T1 construct: expressed in transfected cells; host or cells: CHO
Procedure: (§1) Receptor binding data were determined when performing competition binding assays with membrane preparations of cloned cells (stably transfected Chinese Hamster Ovary cells (CHO)) expressing the human receptors and the following radioligands: [^3H]spiperone at the human dopamine receptor subtypes hD2long, hD2short, D3, and hD4.4.
(§2) Selectivity ratios were calculated by division of the Ki values of the various compounds at the respective receptors through the Ki values at the 5HT1a receptor.

[2] = target: T2, human dopamine receptor subtype hD2long (Homo sapiens, UniProt P14416); test: as above; conditions: for Ki: means of 2-8 individual experiments each done as triplicate; for selectivity ratio hD2long: vs p5-HT1a
T2 construct: expressed in transfected cells; host or cells: CHO
T2 sequence (P14416 whole entry): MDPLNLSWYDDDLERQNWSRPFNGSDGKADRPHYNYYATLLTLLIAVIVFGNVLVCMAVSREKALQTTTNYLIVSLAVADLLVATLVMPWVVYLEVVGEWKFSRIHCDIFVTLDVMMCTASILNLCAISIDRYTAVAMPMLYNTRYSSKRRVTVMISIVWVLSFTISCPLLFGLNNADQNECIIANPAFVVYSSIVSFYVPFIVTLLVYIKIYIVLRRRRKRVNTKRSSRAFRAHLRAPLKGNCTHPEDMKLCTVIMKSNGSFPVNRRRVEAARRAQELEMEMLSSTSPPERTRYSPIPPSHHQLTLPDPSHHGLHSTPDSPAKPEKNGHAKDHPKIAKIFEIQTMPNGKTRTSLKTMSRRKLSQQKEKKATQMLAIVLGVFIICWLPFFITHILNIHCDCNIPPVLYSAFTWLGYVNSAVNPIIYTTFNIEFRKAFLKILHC
Procedure: as §1, §2

[3] = target: T3, human dopamine receptor subtype hD2short (Homo sapiens, UniProt P14416); test: as above; conditions: for Ki: means of 2-8 individual experiments each done as triplicate; for selectivity ratio hD2short: vs p5-HT1a
T3 construct: expressed in transfected cells; host or cells: CHO
T3 sequence (P14416 1-414 isoform P14416-2): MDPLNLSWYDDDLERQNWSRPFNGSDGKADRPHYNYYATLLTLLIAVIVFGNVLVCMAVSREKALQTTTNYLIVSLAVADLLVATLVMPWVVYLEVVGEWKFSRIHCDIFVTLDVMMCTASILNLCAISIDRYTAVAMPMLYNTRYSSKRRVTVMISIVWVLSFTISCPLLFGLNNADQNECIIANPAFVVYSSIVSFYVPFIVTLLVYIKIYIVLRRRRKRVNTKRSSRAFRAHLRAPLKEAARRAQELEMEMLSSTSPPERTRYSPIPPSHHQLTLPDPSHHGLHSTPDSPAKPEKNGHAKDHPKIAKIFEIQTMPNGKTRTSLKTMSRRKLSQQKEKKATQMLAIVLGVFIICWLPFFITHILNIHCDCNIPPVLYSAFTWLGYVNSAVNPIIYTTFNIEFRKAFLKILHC
Procedure: as §1, §2

[4] = target: T4, porcine cortical p5-HT2 serotonin receptor (Sus scrofa, UniProt P50129); test: Receptor binding assay, [3H]ketanserin competition, porcine cortical membranes; conditions: for Ki: means of 2-8 individual experiments each done as triplicate; for selectivity ratio p5-HT2: vs p5-HT1a
T4 construct: membrane homogenates prepared from porcine striatal or cortical tissue; from tissue; host or cells: porcine cortex
T4 sequence (P50129 whole entry): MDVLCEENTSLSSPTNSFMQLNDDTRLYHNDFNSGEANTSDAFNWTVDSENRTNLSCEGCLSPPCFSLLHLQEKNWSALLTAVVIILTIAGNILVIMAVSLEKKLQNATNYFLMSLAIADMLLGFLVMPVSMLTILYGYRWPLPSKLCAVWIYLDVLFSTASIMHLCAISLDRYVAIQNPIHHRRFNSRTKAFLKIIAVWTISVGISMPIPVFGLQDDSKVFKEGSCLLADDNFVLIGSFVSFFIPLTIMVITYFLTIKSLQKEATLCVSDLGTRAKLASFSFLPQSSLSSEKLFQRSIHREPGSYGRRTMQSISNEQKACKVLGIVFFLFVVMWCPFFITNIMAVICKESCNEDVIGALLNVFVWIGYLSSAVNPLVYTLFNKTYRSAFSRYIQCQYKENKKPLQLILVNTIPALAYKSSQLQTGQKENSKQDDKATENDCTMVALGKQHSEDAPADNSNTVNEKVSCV

[5] = target: T5, porcine cortical p5-HT1a serotonin receptor (Sus scrofa, UniProt A0A4X1UTF5); test: Receptor binding assay, [3H]WAY100635 competition, porcine cortical membranes; conditions: for Ki: means of 2-8 individual experiments each done as triplicate; for selectivity ratio p5-HT1a: reference receptor of the ratio (=1)
T5 construct: membrane homogenates prepared from porcine striatal or cortical tissue; from tissue; host or cells: porcine cortex
T5 sequence (A0A4X1UTF5 1-422): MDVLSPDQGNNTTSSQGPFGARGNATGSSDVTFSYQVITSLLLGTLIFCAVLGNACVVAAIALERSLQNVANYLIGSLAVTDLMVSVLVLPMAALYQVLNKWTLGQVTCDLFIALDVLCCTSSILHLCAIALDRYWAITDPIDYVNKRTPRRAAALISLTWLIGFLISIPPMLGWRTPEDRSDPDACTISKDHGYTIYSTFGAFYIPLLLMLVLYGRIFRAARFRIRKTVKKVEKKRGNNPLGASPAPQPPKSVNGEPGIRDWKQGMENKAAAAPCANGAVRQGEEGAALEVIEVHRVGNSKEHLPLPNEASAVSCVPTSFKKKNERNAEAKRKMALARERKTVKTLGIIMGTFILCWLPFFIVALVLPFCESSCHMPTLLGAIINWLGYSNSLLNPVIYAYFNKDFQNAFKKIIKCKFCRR

[6] = target: T6, porcine striatal pD1 dopamine receptor (Sus scrofa, UniProt P50130); test: Receptor binding assay, [3H]SCH 23390 competition, porcine striatal membranes; conditions: for Ki: means of 2-8 individual experiments each done as triplicate; for selectivity ratio pD1: vs p5-HT1a
T6 construct: membrane homogenates prepared from porcine striatal or cortical tissue; from tissue; host or cells: porcine striatum
T6 sequence (P50130 whole entry): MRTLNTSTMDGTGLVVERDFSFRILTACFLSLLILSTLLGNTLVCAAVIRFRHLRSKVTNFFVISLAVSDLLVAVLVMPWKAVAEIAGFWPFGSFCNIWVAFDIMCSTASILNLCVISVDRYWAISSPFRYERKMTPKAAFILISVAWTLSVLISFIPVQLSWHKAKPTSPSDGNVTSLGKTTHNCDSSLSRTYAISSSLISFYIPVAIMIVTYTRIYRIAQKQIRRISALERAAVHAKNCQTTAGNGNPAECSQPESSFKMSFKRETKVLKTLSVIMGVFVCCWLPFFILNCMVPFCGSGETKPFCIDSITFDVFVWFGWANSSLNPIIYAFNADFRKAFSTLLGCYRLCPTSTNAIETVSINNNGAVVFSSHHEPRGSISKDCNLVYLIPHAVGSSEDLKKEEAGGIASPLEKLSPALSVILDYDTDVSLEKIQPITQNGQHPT

[7] = target: T7, porcine cortical pα1 adrenergic receptor; test: Receptor binding assay, [3H]prazosin competition, porcine cortical membranes; conditions: means of 2-8 individual experiments each done as triplicate
T7 construct: Ki pα1; other: means of 2-8 individual experiments each done as triplicate

[8] = system: porcine cortical pα1 adrenergic receptor; test: as above; conditions: vs p5-HT1a
[9] = target: T8, human dopamine receptor subtype hD4.4 (Homo sapiens, UniProt P21917); test: Receptor binding assay, [3H]spiperone competition, CHO cell membranes; conditions: for Ki: means of 2-8 individual experiments each done as triplicate; for selectivity ratio hD4.4: vs p5-HT1a
T8 construct: expressed in transfected cells; host or cells: CHO
T8 sequence (P21917 1-419): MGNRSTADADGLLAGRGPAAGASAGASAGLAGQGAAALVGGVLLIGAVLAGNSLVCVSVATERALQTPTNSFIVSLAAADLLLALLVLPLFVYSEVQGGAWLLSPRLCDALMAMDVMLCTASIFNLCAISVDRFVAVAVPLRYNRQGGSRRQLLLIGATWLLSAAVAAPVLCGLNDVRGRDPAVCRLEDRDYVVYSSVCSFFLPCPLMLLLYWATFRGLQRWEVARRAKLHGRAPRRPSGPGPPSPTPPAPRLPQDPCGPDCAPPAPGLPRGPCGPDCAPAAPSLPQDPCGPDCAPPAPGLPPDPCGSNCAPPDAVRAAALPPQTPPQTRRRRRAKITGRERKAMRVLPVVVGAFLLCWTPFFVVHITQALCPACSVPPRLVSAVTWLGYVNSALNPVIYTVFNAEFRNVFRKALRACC
Procedure: as §1, with “hD4.4. […].” for “hD4.4.”
as §2

human 5-HT1a receptor = target: T9, human 5-HT1a receptor (Homo sapiens, UniProt P08908); test: [35S]GTPγS functional assay; format: biochemical
T9 construct: expressed in transfected cells
T9 sequence (P08908 1-422): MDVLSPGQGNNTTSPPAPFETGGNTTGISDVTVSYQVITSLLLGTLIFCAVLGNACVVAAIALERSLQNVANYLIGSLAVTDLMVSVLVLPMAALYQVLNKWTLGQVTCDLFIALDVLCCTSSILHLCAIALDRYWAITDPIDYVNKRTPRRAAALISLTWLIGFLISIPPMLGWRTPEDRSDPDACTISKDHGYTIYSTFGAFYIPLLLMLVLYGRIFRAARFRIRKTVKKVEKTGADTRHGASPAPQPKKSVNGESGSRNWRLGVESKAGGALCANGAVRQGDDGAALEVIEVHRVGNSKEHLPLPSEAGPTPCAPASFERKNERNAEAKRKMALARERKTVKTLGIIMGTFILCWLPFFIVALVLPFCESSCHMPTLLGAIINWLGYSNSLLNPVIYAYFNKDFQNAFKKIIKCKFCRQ
Procedure: Specific binding of [^35S]GTPγS is stimulated by activation of the stably expressed human 5-HT1a receptor in a dose-dependent way by agonists for this GPCR and is determined by measuring the radioactive label of the membrane. Non-linear regression analysis of the resulting dose-response curves yields the EC50 value in [nM] representing the half maximal concentration which is necessary to activate the receptor completely.

T1 sequence (P35462 whole entry): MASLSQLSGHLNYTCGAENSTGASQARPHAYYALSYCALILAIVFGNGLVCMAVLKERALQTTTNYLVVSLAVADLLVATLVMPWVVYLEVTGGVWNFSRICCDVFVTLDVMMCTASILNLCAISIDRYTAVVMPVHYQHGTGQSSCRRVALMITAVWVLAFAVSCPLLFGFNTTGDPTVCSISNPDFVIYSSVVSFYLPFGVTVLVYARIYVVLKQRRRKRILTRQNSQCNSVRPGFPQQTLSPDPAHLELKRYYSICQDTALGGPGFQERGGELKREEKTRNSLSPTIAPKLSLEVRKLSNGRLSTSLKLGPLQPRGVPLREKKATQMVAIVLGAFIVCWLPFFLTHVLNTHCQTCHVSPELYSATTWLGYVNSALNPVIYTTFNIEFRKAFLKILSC

| Compound | Ki [1] [nM] | selectivity ratio hD3 [1] | Ki [2] [nM] | selectivity ratio hD2long [2] | Ki [3] [nM] | selectivity ratio hD2short [3] | Ki [4] [nM] | selectivity ratio p5-HT2 [4] | Ki [5] [nM] | selectivity ratio p5-HT1a [5] | Ki [6] [nM] | selectivity ratio pD1 [6] | Ki [7] [nM] | selectivity ratio pα1 [8] | Ki [9] [nM] | selectivity ratio hD4.4 [9] | EC50 (human 5-HT1a receptor; mean values of 2-8 individual experiments) [nM] | Emax (human 5-HT1a receptor; read-out: intrinsic activity [% rel. to serotonin]) [%] |
| --- | --- | --- | --- | --- | --- | --- | --- | --- | --- | --- | --- | --- | --- | --- | --- | --- | --- | --- |
| CCCN(CCc1ccccc1)C1CCc2cccc(O)c2C1 (stereo not shown) [Compound 3, N-(8-Hydroxytetralin-2-yl)-N-(2-phenylethyl)-N-propylamine] | 190 | 310 | 760 | 1 200 | 170 | 270 | 5800 | 9 400 | 0.62 | 1 | 9100 | 15 000 | 140 | 230 | 590 | 950 | – | – |
| CCCN(CCc1ccc(O)cc1)C1CCc2cccc(O)c2C1 (stereo not shown) [Compound 5, N-[2-(4-Hydroxyphenyl)ethyl]-N-(8-hydroxytetralin-2-yl)-N-propylamine] | 95 | 86 | 340 | 310 | 86 | 80 | 6600 | 6 000 | 1.1 | 1 | 6200 | 5 600 | 87 | 79 | 570 | 520 | – | – |
| CCCN(CCc1cccs1)[C@H]1CCc2cccc(O)c2C1 [Compound 1b, (S)—N-(8-Hydroxytetralin-2-yl)-N-propyl-N-[2-(2-thienyl)ethyl]amine] | 49 | 26 | 520 | 290 | 290 | 160 | 5500 | 3 100 | 1.8 | 1 | 5400 | 3 000 | 200 | 110 | 690 | 380 | – | – |
| CCCN(CCc1cc2ccc1CCc1ccc(cc1)CC2)C1CCc2cccc(OC)c2C1 (stereo not shown) [Compound 14, N-(8-Methoxytetralin-2-yl)-N-propyl-N-[2-([2.2]paracyclophan-4-yl)ethyl]-amine] | 33 | 0.66 | 48 | 0.96 | 35 | 0.70 | 7300 | 150 | 50 | 1 | 1900 | 38 | 280 | 5.6 | 110 | 2.2 | – | – |
| CCCN(CCC)C1CCc2cccc(O)c2C1 (stereo not drawn) [R-(+)-8-OH-DPAT, reference compound] | – | – | – | – | – | – | 2100 | – | 1.2 | – | 3300 | – | 250 | – | 210 | – | – | – |
| CCCN(CCc1ccc(OC)cc1)C1CCc2cccc(OC)c2C1 (stereo not shown) [Compound 6, N-[2-(4-Methoxyphenyl)ethyl]-N-(8-methoxytetralin-2-yl)-N-propylamine] | 110 | – | 340 | – | 260 | – | 4900 | – | 5.5 | – | 9500 | – | 230 | – | 470 | – | – | – |
| N-(2-Adamantylethyl)-N-(8-methoxytetralin-2-yl)-N-propylamine [Compound 10] | 260 | 4.0 | 380 | 5.8 | 190 | 2.9 | 14000 | 220 | 65 | 1 | 12000 | 180 | 4900 | 75 | 1800 | 28 | – | – |
| CCCN(CCc1cccs1)[C@H]1CCc2cccc(OC)c2C1 [Compound 2b, (S)—N-(8-Methoxytetralin-2-yl)-N-propyl-N-[2-(2-thienyl)ethyl]amine] | 32 | – | 85 | – | 58 | – | 3900 | – | 6.7 | – | 3300 | – | 140 | – | 760 | – | – | – |
| CCCN(CCc1cc2ccc1CCc1ccc(cc1)CC2)C1CCc2cccc(O)c2C1 (stereo not shown) [Compound 13, N-(8-Hydroxytetralin-2-yl)-N-[2-([2.2]paracyclophan-4-yl)ethyl]-N-propylamine] | 170 | 11 | 990 | 66 | 640 | 43 | 2100 | 140 | 15 | 1 | 3500 | 230 | 930 | 62 | 87 | 5.8 | – | – |
| N-(2-Ferrocenylethyl)-N-(8-hydroxytetralin-2-yl)-N-propylamine [Compound 11] | 52 | – | 34 | – | 16 | – | 930 | – | 0.32 | – | 3100 | – | 170 | – | 7.4 | – | – | – |
| CCCN(CCc1cccs1)C1CCc2cccc(OC)c2C1 (stereo not shown) [Compound 2, N-(8-Methoxytetralin-2-yl)-N-propyl-N-[2-(2-thienyl)ethyl]amine] | 57 | – | 160 | – | 390 | – | 12000 | – | 2.9 | – | 6700 | – | 200 | – | 390 | – | 6.3 | 91 |
| CCCN(CCc1cc(C)ccc1C)C1CCc2cccc(OC)c2C1 (stereo not shown) [Compound 8, N-(8-Methoxytetralin-2-yl)-N-propyl-N-[2-(2,5-dimethyl)phenylethyl]amine] | 110 | – | 300 | – | 180 | – | 4400 | – | 24 | – | 6200 | – | 510 | – | 940 | – | – | – |
| N-(2-Ferrocenylethyl)-N-(8-methoxytetralin-2-yl)-N-propylamine [Compound 12] | 11 | – | 38 | – | 17 | – | 2200 | – | 1.8 | – | 2600 | – | 92 | – | 3.5 | – | – | – |
